Values of other authors as cited in patent US8791105B2, “Methods for alleviating chronic pain and improving performance of cattle undergoing dehorning or castration” (Kansas State University Research Foundation, priority 2010, dated 2014).

How the values were obtained:
[1] = plasma; humans; cited from earlier work
[2] = in vivo; cited from earlier work

Row | Molecule | reported minimum effective concentration [1] [µg/mL] | plasma half-life previously reported [2] [min]
1 | 1-(aminomethyl) cyclohexane acetic acid [gabapentin] | 2 | 
2 | O=C(O)c1ccccc1O [salicylate] |  | 30
